Experimental data published in patent publication US8338441B2, “Inhibitors of human immunodeficiency virus replication” (priority 2009, dated 2012).

test system: HIV-1 NL4.3 strain; assay: C8166 HIV-1 Luciferase Assay (EC50); format: cell-based; details: Human immunodeficiency virus 1, C8166, 72 h, read-out: Antiviral potency EC50
Source text: C8166 HIV-1 Luciferase Assay (EC50)
C8166 cells are derived from a human T-lymphotrophic virus type 1 immortalized but nonexpressing line of cord blood lymphocytes (obtained from J. Sullivan and originally produced in the laboratory of R. Gallo, Virology 1983; 129: 51-64) and are highly permissive to HIV-1 infection. The pGL3 Basic LTR/TAR plasmid is made by introducing the HIV-1 HxB2 LTR sequence from nucleotide −138 to +80 (Sca1-HindIII) upstream of the luciferase gene in the pGL3 Basic Vector (a promoterless luciferase expression vector from Promega catalogue # E1751) with the gene for blasticidine resistance cloned in. The reporter cells are made by electroporating C8166 cells with pGL3 Basic LTR/TAR and selecting positive clones with blasticidine. Clone C8166-LTRIuc #A8-F5-G7 is selected by 3 consecutive rounds of limiting dilution under blasticidine selection. Cultures are maintained in complete media (consisting of: Roswell Park Memorial Institute medium (RPMI) 1640+10% FBS+10^−5 M β-mercaptoethanol+10 μg/ml gentamycin) with 5 μg/ml blasticidine, however, blasticidine selection is removed from the cells before performing the viral replication assay.
Luciferase Assay Protocol
Serial dilutions of HIV-1 inhibitor compounds are prepared in complete media from 10 mM DMSO stock solutions. Eleven serial dilutions of 2.5× are made at 8× desired final concentration in a 1 mL deep well titer plate (96 wells). The 12th well contains complete media with no inhibitor and serves as the positive control. All samples contain the same concentration of DMSO (≦0.1% DMSO). A 25 μL aliquot of inhibitor is added, to triplicate wells, of a 96 well tissue culture treated clear view black microtiter plate (Corning Costar catalogue # 3904). The total volume per well is 200 μL of media containing cells and inhibitor. The last row is reserved for uninfected C8166 LTRluc cells to serve as the background blank control and the first row is media alone.
C8166 LTRluc cells are counted and placed in a minimal volume of complete RPMI 1640 in a tissue culture flask (ex. 30×10^6 cells in 10 mL media/25 cm^2 flask). Cells are infected with HIV-1 or virus with variant integrase generated as described below at a […] (moi) of 0.005. Cells are incubated for 1.5 hours at 37° C. on a rotating rack in a 5% CO2 incubator and re-suspended in complete RPMI to give a final concentration of 25,000-cells/175 μL. 175 μL of cell mix is added to wells of a 96 well microtiter plate containing 25 μL 8× inhibitors. 25,000 uninfected C8166-LTRluc cells/well in 200 μL complete RPMI are added to the last row for background control. Cells are incubated at 37° C. in 5% CO2 incubator for 3 days.
50 μL Steady Glo (luciferase substrate T1/2=5 hours Promega catalogue # E2520) is added to each well of the 96 well plate. The relative light units (RLU) of luciferase is determined using the LUMIstar Galaxy luminometer (BMG LabTechnologies). Plates are read from the bottom for 2 seconds per well with a gain of 240.
The level of inhibition (% inhibition) of each well containing inhibitor is calculated as follows: […]
The calculated % inhibition values are used to determine EC50, slope factor (n) and maximum inhibition (Imax) by the non-linear regression routine NLIN procedure of SAS using the following equation: […]

SMILES | EC50 [nM]
Cc1nc(-c2cccc(Br)c2)c(C)c(-c2ccc3c(c2)CCCO3)c1[C@H](OC(C)(C)C)C(=O)O [compound 1005] | 19
Cc1nc(-c2cccc(-c3cccnc3)c2)c(C)c(-c2ccc3c(c2)CCCO3)c1[C@H](OC(C)(C)C)C(=O)O [compound 1009] | 20
CCCn1cc(-c2cccc(-c3nc(C)c([C@H](OC(C)(C)C)C(=O)O)c(-c4ccc5c(c4)CCCO5)c3C)c2)cn1 [compound 1011] | 59
Cc1nc(-c2cccc(-c3cncnc3)c2)c(C)c(-c2ccc3c(c2)CCCO3)c1[C@H](OC(C)(C)C)C(=O)O [compound 1017] | 21
Cc1n[nH]c(C)c1-c1cccc(-c2nc(C)c([C@H](OC(C)(C)C)C(=O)O)c(-c3ccc4c(c3)CCCO4)c2C)c1 [compound 1018] | 180
Cc1nc(-c2cccc(-c3ccnnc3)c2)c(C)c(-c2ccc3c(c2)CCCO3)c1[C@H](OC(C)(C)C)C(=O)O [compound 1020] | 49
Cc1nc(-c2ccc(-c3cncnc3)cc2)c(C)c(-c2ccc3c(c2C)CCCO3)c1[C@H](OC(C)(C)C)C(=O)O [compound 1102] | 17
Cc1ccc(-c2nc(C)c([C@H](OC(C)(C)C)C(=O)O)c(-c3ccc(Cl)cc3)c2C)cc1C [compound 1111] | 15
Cc1ccc(-c2nc(C)c([C@H](OC(C)(C)C)C(=O)O)c(-c3ccc4c(c3C)NCCO4)c2C)cc1C [compound 1113] | 7.7
Cc1ccc(-c2nc(C)c([C@H](OC(C)(C)C)C(=O)O)c(-c3ccc4c5c(ccnc35)CCO4)c2C)cc1C [compound 1116] | 13
Cc1nc(-c2cccc(-c3ccnn3C)c2)c(C)c(-c2ccc(Cl)cc2)c1[C@H](OC(C)(C)C)C(=O)O [compound 1124] | 81
Cc1nc(C(=O)N[C@H]2CC[C@H](C)CC2)c(C)c(-c2ccc3c(c2)CCCO3)c1[C@H](OC(C)(C)C)C(=O)O [compound 1127] | 4.5
Cc1nc(-c2ccc(OC(F)(F)F)cc2)c(C)c(-c2ccc(Cl)cc2)c1[C@H](OC(C)(C)C)C(=O)O [compound 1132] | 9.4
Cc1nc(-c2ccc3scnc3c2)c(C)c(-c2ccc(Cl)cc2)c1[C@H](OC(C)(C)C)C(=O)O [compound 1141] | 26
Cc1nc(C(=O)N[C@H]2CC[C@H](C)CC2)c(C)c(-c2ccc(Cl)cc2)c1[C@H](OC(C)(C)C)C(=O)O [compound 1142] | 7.9
Cc1nc(C(=O)NC(C)(C)C)c(C)c(-c2ccc(Cl)cc2)c1[C@H](OC(C)(C)C)C(=O)O [compound 1143] | 21
Cc1nc(C(=O)NC2Cc3ccccc3C2)c(C)c(-c2ccc(Cl)cc2)c1[C@H](OC(C)(C)C)C(=O)O [compound 1145] | 35
Cc1nc(C(=O)NCCc2ccccc2)c(C)c(-c2ccc(Cl)cc2)c1[C@H](OC(C)(C)C)C(=O)O [compound 1146] | 17
Cc1nc(C(=O)NC2CCCCCC2)c(C)c(-c2ccc(Cl)cc2)c1[C@H](OC(C)(C)C)C(=O)O [compound 1147] | 6.9
Cc1nc(C(=O)N[C@@H](C)C2CCCCC2)c(C)c(-c2ccc(Cl)cc2)c1[C@H](OC(C)(C)C)C(=O)O [compound 1152] | 15
Cc1nc(C(=O)NC(C)(C)c2ccccc2)c(C)c(-c2ccc(Cl)cc2)c1[C@H](OC(C)(C)C)C(=O)O [compound 1154] | 27
CC[C@@H](C)NC(=O)c1nc(C)c([C@H](OC(C)(C)C)C(=O)O)c(-c2ccc(Cl)cc2)c1C [compound 1160] | 16
Cc1nc(C(=O)NC2CCC(C(C)(C)C)CC2)c(C)c(-c2ccc(Cl)cc2)c1[C@H](OC(C)(C)C)C(=O)O (stereo partly drawn) [compound 1161] | 27
Cc1ccc(NC(=O)c2nc(C)c([C@H](OC(C)(C)C)C(=O)O)c(-c3ccc(Cl)cc3)c2C)cc1 [compound 1167] | 9.3
Cc1nc(C(=O)NC2CCCCCC2)c(C)c(-c2ccc3c(c2C)NCCO3)c1[C@H](OC(C)(C)C)C(=O)O [compound 1192] | 8.3
Cc1nc(NC(=O)C(C)(C)C)c(C)c(-c2ccc(Cl)cc2)c1[C@H](OC(C)(C)C)C(=O)O [compound 1202] | 31

SMILES | EC50 [nM]
Cc1nc(C(=O)NCC2CCCC2)c(C)c(-c2ccc(Cl)cc2)c1[C@H](OC(C)(C)C)C(=O)O [compound 1208] | 8.9
Cc1nc(NC(=O)C(C)(C)C)c(C)c(-c2ccc3c(c2Cl)NCCO3)c1[C@H](OC(C)(C)C)C(=O)O [compound 1242] | 220
Cc1nc(C(=O)NCC2CCCC2)c(C)c(-c2ccc3c(c2Cl)NCCO3)c1[C@H](OC(C)(C)C)C(=O)O [compound 1256] | 8.1
Cc1nc(C(=O)Nc2ccc3ncccc3c2)c(C)c(-c2ccc(Cl)cc2)c1[C@H](OC(C)(C)C)C(=O)O [compound 1275] | 4.5
Cc1nc(C(=O)Nc2nc3c(s2)CCC3)c(C)c(-c2ccc(Cl)cc2)c1[C@H](OC(C)(C)C)C(=O)O [compound 1276] | 68
Cc1nc(C(=O)Nc2ccc(C(F)(F)F)nc2)c(C)c(-c2ccc(Cl)cc2)c1[C@H](OC(C)(C)C)C(=O)O [compound 1280] | 22
Cc1nc(C(=O)Nc2ccc(C(N)=O)nc2)c(C)c(-c2ccc(Cl)cc2)c1[C@H](OC(C)(C)C)C(=O)O [compound 1283] | 140
Cc1nc(C(=O)Nc2ccc(F)cn2)c(C)c(-c2ccc3c(c2)NCCO3)c1[C@H](OC(C)(C)C)C(=O)O [compound 1290] | 11
Cc1nc(C(=O)NCC2CCCC2)c(C)c(-c2ccc3c(c2)NCCO3)c1[C@H](OC(C)(C)C)C(=O)O [compound 1293] | 24
Cc1nc(C(=O)NCC2CCC2)c(C)c(-c2ccc(Cl)cc2)c1[C@H](OC(C)(C)C)C(=O)O [compound 1307] | 17
Cc1nc2ccc(NC(=O)c3nc(C)c([C@H](OC(C)(C)C)C(=O)O)c(-c4ccc(Cl)cc4)c3C)cc2s1 [compound 1311] | 26
Cc1nc(C(=O)Nc2nnc(C3CC3)s2)c(C)c(-c2ccc(Cl)cc2)c1[C@H](OC(C)(C)C)C(=O)O [compound 1316] | 47
Cc1nc(-c2nc3ccc(Cl)cc3n2C)c(C)c(-c2ccc(Cl)cc2)c1[C@H](OC(C)(C)C)C(=O)O [compound 1437] | 0.75
Cc1nc(-c2cn3cc(Cl)ccc3n2)c(C)c(-c2ccc(Cl)cc2)c1[C@H](OC(C)(C)C)C(=O)O [compound 1438] | 0.94
COc1ccc2nc(-c3nc(C)c([C@H](OC(C)(C)C)C(=O)O)c(-c4ccc(Cl)cc4)c3C)n(C)c2c1 [compound 1439] | 4
CCn1c(-c2nc(C)c([C@H](OC(C)(C)C)C(=O)O)c(-c3ccc(Cl)cc3)c2C)nc2ccccc21 [compound 1440] | 2.4
COc1cc2nc(-c3nc(C)c([C@H](OC(C)(C)C)C(=O)O)c(-c4ccc(Cl)cc4)c3C)n(C)c2cc1Cl [compound 1441] | 4.9
Cc1nc(C(=O)NCc2ccnc3ccccc23)c(C)c(-c2ccc(Cl)cc2)c1[C@H](OC(C)(C)C)C(=O)O [compound 1442] | 16
[2H]C1([2H])C([2H])([2H])C([2H])([2H])C([2H])(NC(=O)c2nc(C)c([C@H](OC(C)(C)C)C(=O)O)c(-c3ccc(Cl)cc3)c2C)C([2H])([2H])C1([2H])[2H] [compound 1443] | 7.1
Cc1nc(C(=O)NC2CCC3(CC2)CC3)c(C)c(-c2ccc(Cl)cc2)c1[C@H](OC(C)(C)C)C(=O)O [compound 1444] | 9.2
Cc1nc(-c2nc3cc(Cl)ccc3[nH]2)c(C)c(-c2ccc(Cl)cc2F)c1[C@H](OC(C)(C)C)C(=O)O [compound 1445] | 1.9
Cc1nc(-c2nc3cc(Cl)ccc3[nH]2)c(C)c(-c2ccccc2Cl)c1[C@H](OC(C)(C)C)C(=O)O [compound 1446] | 1.9
Cc1nc(-c2nc3ccc(Cl)cc3[nH]2)c(C)c(-c2ccc(Br)cc2)c1[C@H](OC(C)(C)C)C(=O)O [compound 1447] | 0.38
Cc1nc(-c2nc3ccccc3n2C)c(C)c(-c2ccc(Br)cc2)c1[C@H](OC(C)(C)C)C(=O)O [compound 1448] | 1.4
Cc1nc(-c2nc3ccccc3n2CC2CC2)c(C)c(-c2ccc(Cl)cc2)c1[C@H](OC(C)(C)C)C(=O)O [compound 1449] | 1.8
